Laboratory results from patent publication US11905244B2, “Chemical modulators of store-operated calcium channels and their therapeutic applications” (The Texas A&M University System, priority 2017, dated 2024).

What follows are compounds tested against CRAC channel (Homo sapiens (Human), UniProt Q96D31) (assay: GFP-NFAT translocation-based high-content screening (TG-stimulated HeLa cells stably expressing GFP-NFAT)). Settings: 200 μM compound.
CRAC channel, sequence (Q96D31 whole entry): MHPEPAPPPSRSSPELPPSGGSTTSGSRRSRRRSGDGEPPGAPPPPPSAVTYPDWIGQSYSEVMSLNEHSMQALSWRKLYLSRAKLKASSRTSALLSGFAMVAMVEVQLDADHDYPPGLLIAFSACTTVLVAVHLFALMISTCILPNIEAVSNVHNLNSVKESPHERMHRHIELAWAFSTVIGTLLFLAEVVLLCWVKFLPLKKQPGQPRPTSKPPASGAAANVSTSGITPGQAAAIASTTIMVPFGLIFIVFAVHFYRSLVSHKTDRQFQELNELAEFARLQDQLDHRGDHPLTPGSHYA
Type: cell-based
Description: It is known that thapsigargin (TG) can induce the CRAC channel to open resulting in the calcium influx. The elevation of calcium in cytoplasm can activate the Ca^2+-calcineurin-NFAT pathway followed by NFAT translocation from the cytoplasm to the nucleus to regulate gene transcription. Therefore, the inventors built a GFP-NFAT translocation-based high-content screening method to evaluate the activity of compounds on CRAC channel. Briefly, a HeLa cell line stably expressing GFP-NFAT was established and used, and the images after chemical stimulation in the presence of TG were acquired using an IN Cell Analyzer 6000 confocal laser imaging system, and then the GFP fluorescent intensity ratio between cytoplasm and nucleus was analyzed to reflect the inhibitory activity of compound on CRAC channel.
Briefly, GFP-NFAT stable cells were cultured in Dulbecco's modified eagle's medium (DMEM) supplemented with 10% FBS in 5% carbon dioxide at 37° C. When it reached 90% confluency, a cell suspension with a concentration of […] was prepared, and an amount of 2000 cells per well (25 μL/well) was seeded in 384 well plate, putting it at the room temperature for 1 h to make sure the cells distribute evenly, then the cells were incubated overnight. First, primary screening of the selected compounds was conducted. A series of compound solutions with a concentration of 200 μM in MEDM medium were prepared in a 96 well plate and then added to a 384 well plate using a Beckman Coulter automatic drug adding system, in 4 duplicates, and incubated for 30 min at 37° C. SKF was selected as the positive control. Then, 1 μM TG and 1 mM Ca^2+ were added to 384-well plate using Beckman Coulter automatic drug adding system and incubated for 20 min. Subsequently, 384 well plate was gently washed with PBS twice, and the cells were fixed with 4% PFA (25 μl per well) for 10˜15 mins at room temperature, then washed with PBS gently, added 0.5% Triton X-100 (25 μL per well), and incubated for 5 mins aFt room temperature, stained with DAPI (1 μg/mL) for 5˜10 mins at room temperature, washed with PBS and added 30 μL PBS per well to image on confocal laser imaging system (objective lens: 10×, FITC and UV). Using Pipeline Plot software (NAFT translocation protocol), the intensity of green fluorescence was analyzed in nucleus and cytosol, calculate the ratio of nucleus:cytosol, normalize TG stimulate NFAT translocation as 1 and no TG adding as 0. Finally, the data was analyzed using GraphPad Prism 5 software.
With `CCN/C(=N/c1ccc(C)c(Cl)c1)SC1CC(=O)N(c2ccc(C(=O)OC)cc2)C1=O` (stereo not drawn) [Compound 62] the “Inhibitory activity on CRAC channel in primary screening (NFAT nucleus-to-cytosol ratio)” value was “good inhibition”.

Same assay, conditions: Table 1, hits from virtual screening; unit inferred; read-out: IC50 Value
With `CCN/C(=N\c1ccc(Cl)c(Cl)c1)S[C@H]1CC(=O)N(c2ccc(C(=O)O)cc2)C1=O` [Compound 30] the IC50 was > 200 µM.
`O=C(O)c1ccc(N2C(=O)c3cccc4cc(Br)cc(c34)C2=O)cc1` [Compound 24] was tested, and the IC50 was > 200 µM.
For `Cc1ccc(Oc2ccc(N3C[C@H](C(=O)O)CC3=O)cc2)cc1C` [Compound 50], the IC50 was > 200 µM.
With `Cc1ccc(Oc2ccc3c(c2)C(=O)N(CC(=O)O)C3=O)cc1` [Compound 07] the IC50 was > 200 µM.
With `COc1ccc(-c2occ(C(=O)O)c2C(=O)O)cc1` [Compound 34] the IC50 was > 200 µM.
In the case of `CCc1ccc(C=C(C(=O)O)C(=O)O)s1` [Compound 23], the IC50 is reported as > 200 µM.
`O=c1[nH]nnc2c1C1=C(CCCC1)C2` [Compound 51] was tested, and the IC50 was > 200 µM.
With `O=C(O)c1ccc(-c2ccc(CNC3CCCCC3)o2)cc1` [Compound 14] the IC50 was > 200 µM.
For `O=C(O)c1ccc(NC(=O)[C@H]2CC(=O)N(c3ccc(Cl)cc3)C2)cc1` [Compound 47], the IC50 was > 200 µM.
With `Cc1cccc(C)c1OCC(=O)NCc1ccc(C(=O)O)cc1` [Compound 17] the IC50 was > 200 µM.
In the case of `O=C(O)CCC(=O)Nc1ccc(OCCc2ccccc2)cc1` [Compound 44], the IC50 is reported as > 200 µM.
In the case of `Nc1c(S(=O)(=O)O)ccc2c1C(=O)c1ccccc1C2=O` [Compound 28], the IC50 is reported as > 200 µM.
`O=C(O)[C@H]1CC(=O)N(c2ccc(I)cc2)C1` [Compound 39] was tested, and the IC50 was > 200 µM.
In the case of `O=C(O)CN1C(=O)[C@@H]2[C@@H](C1=O)[C@H]1C=C[C@@H]2C1` [Compound 37], the IC50 is reported as > 200 µM.
In the case of `Cc1cc2nc(S(=O)(=O)O)n(C)c2cc1C` [Compound 31], the IC50 is reported as > 200 µM.
With `O=C(O)c1ccc2c(c1)[C@@H](Cl)Cc1ccccc1S2` [Compound 35] the IC50 was > 200 µM.
For `Cc1cc(C)n(-c2ccc(S(=O)(=O)O)cc2)n1` [Compound 43], the IC50 was > 200 µM.
With `O=C(O)c1ccc(C(=O)Nc2ccc(Br)cc2)c(C(=O)O)c1` [Compound 33] the IC50 was > 200 µM.
`CC(=C\C(=O)O)/C(=C/c1ccc(C)o1)C(=O)O` [Compound 27] was tested, and the IC50 was > 200 µM.
In the case of `CC(SC1N=C(c2ccccc2)C(c2ccccc2)=N1)C(=O)O` (stereo not drawn) [Compound 22], the IC50 is reported as > 200 µM.
`O=C(CCCc1nc(-c2ccccc2)no1)Nc1ccc(C(=O)O)cc1` [Compound 13] was tested, and the IC50 was > 200 µM.
With `O=C(O)c1ccc(NC(=O)C2CC(=O)N(c3ccc(Cl)cc3)C2)cc1` (stereo not drawn) [Compound 18] the IC50 was > 200 µM.
With `Cc1nn([C@H](CC(=O)O)C(=O)O)c(C)c1I` [Compound 29] the IC50 was > 200 µM.

Same assay, conditions: Table 2; unit inferred; read-out: IC50 of the compounds (inhibitory activity on CRAC channel)
In the case of `CCN/C(=N\c1ccccc1)SC1CC(=O)N(c2ccc(C(=O)NC)cc2)C1=O` (stereo not drawn) [Compound 90], the IC50 is reported as > 200 µM.
Work on `CN/C(=N/c1ccccc1)SC1CC(=O)N(c2ccc(C(=O)OC)cc2)C1=O` (stereo not drawn) [Compound 64] yielded an IC50 of 24.9 µM.
For `CCCCN/C(=N\c1ccccc1)SC1CC(=O)N(c2ccc(C(=O)NC)cc2)C1=O` (stereo not drawn) [Compound 92], the IC50 was > 200 µM.
`CCCCN/C(=N\c1ccccc1)SC1CC(=O)N(c2ccc(C(=O)OCC)cc2)C1=O` (stereo not drawn) [Compound 85] was tested, and the IC50 was > 200 µM.
In the case of `COc1ccc(CN/C(=N/c2ccc(Cl)cc2)SC2CC(=O)N(c3ccc(C(=O)O)cc3)C2=O)cc1` (stereo not drawn) [Compound 74], the IC50 is reported as > 200 µM.
For `CCOC(=O)c1ccc(N2C(=O)CC(S/C(=N/c3ccccc3)NC(C)(C)C)C2=O)cc1` (stereo not drawn) [Compound 88], the IC50 was > 200 µM.
For `CCOC(=O)c1ccc(N2C(=O)CC(S/C(=N/c3ccccc3)NCCc3ccc(S(N)(=O)=O)cc3)C2=O)cc1` (stereo not drawn) [Compound 103], the IC50 was 15.8 µM.
For `CNC(=O)c1ccc(N2C(=O)CC(S/C(=N/c3ccccc3)NC)C2=O)cc1` (stereo not drawn) [Compound 89], the IC50 was > 200 µM.
For `CCOC(=O)c1ccc(N2C(=O)CC(S/C(=N/c3cc(OC)ccc3OC)NCCc3ccc(S(N)(=O)=O)cc3)C2=O)cc1` (stereo not drawn) [Compound 110], the IC50 was > 200 µM.
`COc1ccc(OC)c(/N=C(\NCCc2ccc(S(N)(=O)=O)cc2)SC2CC(=O)N(c3ccccc3)C2=O)c1` (stereo not drawn) [Compound 112] was tested, and the IC50 was 0.2 µM.
In the case of `CCCCN/C(=N\c1ccccc1)SC1CC(=O)N(c2ccc(C(=O)OC)cc2)C1=O` (stereo not drawn) [Compound 78], the IC50 is reported as > 200 µM.
In the case of `CCN/C(=N/c1ccc(C(F)(F)F)cc1)SC1CC(=O)N(c2ccc(C(=O)O)cc2)C1=O` (stereo not drawn) [Compound 55], the IC50 is reported as > 200 µM.
For `CCCN/C(=N\c1ccccc1)SC1CC(=O)N(c2ccc(C(=O)NC)cc2)C1=O` (stereo not drawn) [Compound 91], the IC50 was > 200 µM.
`COC(=O)c1ccc(N2C(=O)CC(S/C(=N/c3ccccc3)NC(C)C)C2=O)cc1` (stereo not drawn) [Compound 79] gave an IC50 of 11.7 µM.
In the case of `COc1ccc(N2C(=O)CC(S/C(=N/c3cc(OC)ccc3OC)NCCc3ccc(S(N)(=O)=O)cc3)C2=O)cc1` (stereo not drawn) [Compound 109], the IC50 is reported as > 200 µM.
In the case of `COC(=O)c1ccc(N2C(=O)CC(S/C(=N\c3ccc(Cl)cc3)NCc3ccccc3)C2=O)cc1` (stereo not drawn) [Compound 68], the IC50 is reported as > 200 µM.
With `CN/C(=N/c1cc(Cl)ccc1Cl)SC1CC(=O)N(c2ccc(C(=O)O)cc2)C1=O` (stereo not drawn) [Compound 56] the IC50 was > 200 µM.
`NS(=O)(=O)c1ccc(CCNC(=S)Nc2cccc3ccccc23)cc1` [Compound 104] was tested, and the IC50 was > 200 µM.
`CCOC(=O)c1ccc(N2C(=O)CC(Sc3nc4ccccc4n3CCc3ccc(S(N)(=O)=O)cc3)C2=O)cc1` (stereo not drawn) [Compound 117] was tested, and the IC50 was > 200 µM.
`CCN/C(=N/c1ccc(C)c(Cl)c1)SC1CC(=O)N(c2ccc(C(=O)OC)cc2)C1=O` (stereo not drawn) [Compound 62] gave an IC50 of 11.3 µM.
With `CCN/C(=N/c1ccccc1)SC1CC(=O)N(c2ccc(C(=O)O)cc2)C1=O` (stereo not drawn) [Compound 61] the IC50 was > 200 µM.
For `CCCN/C(=N\c1ccccc1)SC1CC(=O)N(c2ccc(C(=O)OCC)cc2)C1=O` (stereo not drawn) [Compound 84], the IC50 was > 200 µM.
With `COc1ccc(N2C(=O)CC(S/C(=N/c3ccccc3)NCCc3ccc(S(N)(=O)=O)cc3)C2=O)cc1` (stereo not drawn) [Compound 106] the IC50 was 5.01 µM.
With `COc1ccc(/N=C(\NCCc2ccc(S(N)(=O)=O)cc2)SC2CC(=O)N(c3ccc(C)cc3)C2=O)cc1` (stereo not drawn) [Compound 114] the IC50 was > 200 µM.
With `CCN/C(=N\c1ccccc1)SC1CC(=O)N(c2ccc(C(=O)OC)cc2)C1=O` (stereo not drawn) [Compound 76] the IC50 was > 200 µM.
For `COC(=O)c1ccc(N2C(=O)CC(S/C(=N\c3cccc(C(F)(F)F)c3)NCCc3ccc(OC)c(OC)c3)C2=O)cc1` (stereo not drawn) [Compound 67], the IC50 was > 200 µM.
Compound `Cc1ccc(/N=C(\NCCc2ccc(S(N)(=O)=O)cc2)SC2CC(=O)N(c3ccccc3)C2=O)cc1` (stereo not drawn) [Compound 113] has an IC50 of 5.83 µM.
`CN/C(=N/c1ccccc1OC)SC1CC(=O)N(c2ccc(C(=O)OC)cc2)C1=O` (stereo not drawn) [Compound 63] showed an IC50 of 74.4 µM.
With `CCN/C(=N/c1cccc(OC)c1)SC1CC(=O)N(c2ccc(C(=O)O)cc2)C1=O` (stereo not drawn) [Compound 72] the IC50 was > 200 µM.
With `COc1ccc(/N=C(\NCCc2ccc(S(N)(=O)=O)cc2)SC2CC(=O)N(c3ccc(OC)cc3)C2=O)cc1` (stereo not drawn) [Compound 108] the IC50 was > 200 µM.
`CCCN/C(=N\c1ccccc1)SC1CC(=O)N(c2ccc(C(=O)OC)cc2)C1=O` (stereo not drawn) [Compound 77] was tested, and the IC50 was > 200 µM.
With `CN/C(=N/c1ccc(I)cc1)SC1CC(=O)N(c2ccc(C(=O)O)cc2)C1=O` (stereo not drawn) [Compound 59] the IC50 was > 200 µM.
For `COC(=O)c1ccc(N2C(=O)CC(S/C(=N/c3ccccc3)NC(C)(C)C)C2=O)cc1` (stereo not drawn) [Compound 81], the IC50 was > 200 µM.
For `CNC(=O)c1ccc(N2C(=O)CC(S/C(=N/c3ccccc3)NC3CC3)C2=O)cc1` (stereo not drawn) [Compound 94], the IC50 was > 200 µM.
For `CN/C(=N/c1cccc(OC)c1)SC1CC(=O)N(c2ccc(C(=O)O)cc2)C1=O` (stereo not drawn) [Compound 71], the IC50 was > 200 µM.
In the case of `CCOC(=O)c1ccc(N2C(=O)CC(S/C(=N/c3ccc(C)cc3)NCCc3ccc(S(N)(=O)=O)cc3)C2=O)cc1` (stereo not drawn) [Compound 116], the IC50 is reported as > 200 µM.
Work on `CN/C(=N/c1cc(Cl)cc(Cl)c1)SC1CC(=O)N(c2ccc(C(=O)O)cc2)C1=O` (stereo not drawn) [Compound 69] yielded an IC50 of 108 µM.
With `CN/C(=N/c1cccc(F)c1)SC1CC(=O)N(c2ccc(C(=O)O)cc2)C1=O` (stereo not drawn) [Compound 70] the IC50 was > 200 µM.
`CCN/C(=N\c1ccccc1)SC1CC(=O)N(c2ccc(C(=O)OCC)cc2)C1=O` (stereo not drawn) [Compound 83] was tested, and the IC50 was > 200 µM.
`COc1ccc(N2C(=O)CC(Sc3nc4ccccc4n3CCc3ccc(S(N)(=O)=O)cc3)C2=O)cc1` (stereo not drawn) [Compound 118] was tested, and the IC50 was > 200 µM.
`COC(=O)c1ccc(N2C(=O)CC(S/C(=N/c3ccc(C)cc3)NCCc3ccc(S(N)(=O)=O)cc3)C2=O)cc1` (stereo not drawn) [Compound 102] was tested, and the IC50 was 9.2 µM.
For `CCOC(=O)c1ccc(N2C(=O)CC(S/C(=N/c3ccccc3)NC)C2=O)cc1` (stereo not drawn) [Compound 82], the IC50 was 22.4 µM.
Compound `CCOC(=O)c1ccc(N2C(=O)CC(S/C(=N/c3ccccc3)NC(C)C)C2=O)cc1` (stereo not drawn) [Compound 86] has an IC50 of 6.34 µM.
For `Cc1ccc(N2C(=O)CC(Sc3nc4ccccc4n3CCc3ccc(S(N)(=O)=O)cc3)C2=O)cc1` (stereo not drawn) [Compound 119], the IC50 was > 200 µM.
`CN/C(=N/c1ccccc1)SC1CC(=O)N(c2ccc(C(=O)OC)cc2)C1=O` (stereo not drawn) [Compound 75] was tested, and the IC50 was > 200 µM.
